Experimental findings from a melting point compilation (Tetko et al.; mined from patent text by program, amines drawn as free bases though some values may be those of a salt) are described below.

Broadly, the melting point is the temperature of the solid-liquid transition.

Turning to `CCOc1nn(Cc2ccc(Cl)cc2Cl)cc1CCCOc1nn(-c2ccccc2)cc1CCC(=O)O`, the melting point was in the range of 114 to 118 °C.

With `CC(C)(C)c1ccc(-c2snnc2S)cc1`, the melting point was above 150 °C.

With `CN(C)C(=O)c1ccc([N+](=O)[O-])cc1S(=O)(=O)NC(C)(C)C`, the melting point lay within 138 to 141 °C.

In turn, `O=C1C(=Cc2cccs2)CCc2cc(OCCc3c[nH]cn3)ccc21` showed a melting point of 60 to 63 °C.

`OC(COc1ccccc1)CN1CCN(c2nc3nccc(-c4ccncc4)n3n2)CC1` (centres undefined) displayed a melting point of 143 to 145 °C.

The compound `Cn1cc(-c2cccc(Br)c2)c(=O)c(-c2ccc(Cl)c(Cl)c2)c1` displayed a melting point of 152 to 154 °C.

`CC(C)CN1C(=O)CCC(c2ccccc2Cl)c2cc(Cl)ccc21` (centres undefined) showed a melting point of 152 to 154 °C.

`N#CC1(CCc2ccccc2)CCCCCN1C(=O)c1ccccc1` (centres undefined) gave a melting point of 116 to 118 °C.

The compound `Oc1cc(Cl)ccc1Br` displayed a melting point of 56 °C.

`CCOCC1=C(C(=O)OCC)C(c2ccccc2C(F)(F)F)C(C(=O)OCC)=C(C)N1` (centres undefined) yielded a melting point of 112 °C.

On to `COc1ccc(CC(SC)C(=O)O)cc1C(=O)NCc1ccc(C(F)(F)F)cc1` (centres undefined), for which the melting point was in the range of 170 to 171 °C.

`Cc1ccc2cc(CC(=O)O)c(=O)[nH]c2n1`: the melting point is above 250 °C.

As to `Cc1ncccc1CN(CCn1cc(C)c2occc2c1=O)Cc1ccc2c(c1)NC(=O)C(C)(C)C(=O)N2CC1CC1`, the melting point lay within 220 to 221 °C.

In turn, `CC(C)N1CC2CC(C1)CN(C(C)(O)c1ccc(F)cc1)C2` (centres undefined) yielded a melting point of 53 to 54 °C.

For the compound `CC(O)CCc1ccc(-c2ccccc2)cc1` (centres undefined), the melting point was 74 to 75 °C.

`CCC1CCC(=NO)C=C1c1ccc(OCC(=O)O)c(Cl)c1Cl` (centres undefined) gave a melting point of 88 to 90 °C.

Turning to `C#Cc1cc(Nc2ncnc3cnc(NC(=O)CP(=O)(OCC)OCC)cc23)ccc1F`, the melting point lay in the range of 103 to 106 °C.

As for `Cc1cncc(COc2cccc(C(N)=O)c2)c1`, the melting point lay in the range of 152 to 154 °C.

Compound `NCCNc1ccc2ncc(Br)n2n1` came in with a melting point of 158 to 159 °C.

Turning to `Clc1ccc(COC(CNc2ccc(Cl)cc2Cl)Cn2ccnc2)cc1` (centres undefined), the melting point fell in the range of 93 to 95 °C.

The compound `CS(=O)(=O)c1ccc(C2=C(c3ccc(-c4cscn4)cc3)C(=O)OC2)cc1` showed a melting point of 237 °C.

In turn, `C=CC(=O)c1ccc(O)c(Cl)c1Cl` registered a melting point of 135 to 137 °C.

The compound `Cc1csc(C)c1S(=O)(=O)Cl` gave a melting point of 79 °C.

Compound `CC(C)(C)c1cc(C(=O)Nc2cccc(SCc3cccnc3)c2)ccc1O` came in with a melting point of 95 to 100 °C.

Consider `Cc1cc2c(-c3ccccc3)noc2c2c1OC(CO)C2` (centres undefined), for which the melting point was in the range of 130 to 133 °C.

Compound `O=C1c2ccccc2C(O)N1CCCN1CCN(c2ccc(Cl)cc2)CC1` (centres undefined) had a melting point of 173 °C.

Take `CCOC(=O)c1c(N2CCN(C=O)CC2)c2cc(F)ccc2n(Cc2ccccc2)c1=O`: the melting point worked out at 206 °C.

Regarding `Cc1c(NC(=O)CC(C)(C)C)c(C)c2c(c1-c1cccc([N+](=O)[O-])c1)OCC2c1ccc(C(C)C)cc1` (centres undefined), the melting point was 209 to 210 °C.

`CC(=O)c1c(-c2ccc(C(F)(F)F)cc2)[nH]c(-c2ccncc2)c1C` gave a melting point of 178 to 180 °C.

The compound `Clc1ccc(C=C(OC2CCCCC2)n2cncn2)c(Cl)c1` registered a melting point of 84 °C.

`COc1cccc(C(O)(c2nccs2)C(F)(F)F)c1` (centres undefined): the melting point lay within 88 to 92 °C.

Regarding `N#Cc1c(N)nc2ccc([N+](=O)[O-])cc2c1NCc1cccs1`, the melting point fell in the range of 277 to 280 °C.

In turn, `NC(=O)CC1(c2ccccc2)Oc2ccccc2O1` displayed a melting point of 114 to 115 °C.

In turn, `CN(O)C(=O)CCc1cc(-c2ccc(Cl)cc2)n(-c2ccccc2)n1` showed a melting point of 155 to 156 °C.

Compound `CC(Cn1cnnn1)n1nnc2cc3c(=O)n(C4CC4)nnc3cc2c1=O` (centres undefined) came in with a melting point of 233 to 235 °C.

The compound `COC(=O)CC(O)CC(O)C=Cc1c2c(nn1-c1ccc(F)cc1)C(Cc1ccc(-c3ccccc3)cc1)CCC2` (racemic) came in with a melting point of 118 to 119 °C.

In the case of `COC(=O)Nc1ccc(N)c([N+](=O)[O-])c1`, the melting point lay within 171 to 172 °C.

Take `N=C(NO)c1ccc(-c2ccc(-c3nc4cc(C(=N)NO)ccc4[nH]3)c(F)c2)cc1`: the melting point is 281 to 283 °C.

`CC(C)c1cc([N+](=O)[O-])ccc1OCC1CO1` (centres undefined) gave a melting point of 60 to 62 °C.

`Cc1nccn1-c1ccc([N+](=O)[O-])cc1` had a melting point of 135 to 137 °C.

In turn, `Nc1ncnc2c1ncn2[C@@H]1CO[C@H](CO)[C@@H](O)C1` displayed a melting point of 237 to 239 °C.

`O=C(CCCN1CCN(c2cc3ccccc3cn2)CC1)c1cccs1` showed a melting point of 94 to 100 °C.

In turn, `CC(C)(C)NC(=O)NCc1cccc2c1C(=O)N(C1CCC(=O)NC1=O)C2=O` (centres undefined) registered a melting point of 186 to 188 °C.

As to `Cc1cc(C)c2c(O)c(O)c(O)nc2c1`, the melting point lay within 280 to 282 °C.

In the case of `O=C(O)c1ccc(S(=O)(=O)NCCSC2c3ccccc3COc3ccc(OCc4ccc5ccccc5n4)cc32)cc1` (centres undefined), the melting point is 113 to 115 °C.

`Cc1c(OCC2CO2)noc1-c1ccccc1` (centres undefined) came in with a melting point of 87 to 88 °C.

For `Nc1nc(-c2ccccc2)c(CCO)c2ncnn12`, the melting point is 194 to 195 °C.

`CN1CCN(c2ccc(C(=O)NCCCCCCCCCCCO[N+](=O)[O-])cn2)CC1` came in with a melting point of 95 to 96 °C.

For the compound `CCNc1nc(C)c(-c2ccnc(Nc3cc(OC)cc(OC)c3)n2)s1`, the melting point was 235 to 237 °C.

Turning to `O=C(N[C@H](Cc1ccc(C(F)(F)F)cc1)[C@@H](O)c1ccc(F)cc1)c1cccc2cccc(Br)c12` (racemic), the melting point was in the range of 191 to 192 °C.

Consider `COc1ccc(Cl)cc1N1CCN(CCCN2C(=O)c3ccccc3C2=O)CC1`, for which the melting point lay within 131 to 133 °C.

Consider `CCCCCCCCc1cnc(-c2ccc(OC)c(F)c2)nc1`, for which the melting point lay within 58.7 to 59 °C.

Regarding `Oc1ccc(Cc2ccc(OCc3ccccc3)cc2)cc1`, the melting point fell in the range of 95 to 96 °C.

Take `CC(C)c1[nH]cnc1CO`: the melting point was 121 to 123 °C.

Consider `CC(C)NC(=O)CS(=O)CC(=O)c1ccc(-c2ccccc2)cc1` (centres undefined), for which the melting point was 138 °C.

As for `NS(=O)(=O)c1ccccc1OCCO`, the melting point fell in the range of 94 to 99 °C.

`O=S1(=O)OC[C@H]2CCCN21` returned a melting point of 45 to 46 °C.

In turn, `CC1(C)Oc2ccc(C#N)cc2C(Nc2ccc(=O)[nH]c2)C1O` (centres undefined) displayed a melting point of 285 to 287 °C.

`CCC1(CC)C(=O)N(C(C)(C)C)CC(C)(C)N1OC(=O)C(c1ccccc1)c1ccccc1` came in with a melting point of 109 °C.

Consider `Cc1cccc(C2=NN(C(=O)c3cccnc3)CC2)c1`, for which the melting point lay in the range of 99 to 100 °C.

Consider `COc1ccc(-c2oc3ccc(F)cc3c(=O)c2OCCOc2cccc(C(C)=C3SC(=O)NC3=O)c2)cc1OC`, for which the melting point lay in the range of 228 to 230 °C.

On to `COc1ccc(-n2nc(Sc3ccc(C#N)cc3)c(C)c(C#N)c2=O)cc1`, for which the melting point was 195 to 198 °C.

`CC(C)(C)CCCCCCCCCCCC(=O)O` yielded a melting point of 37 to 39 °C.

Take `CCOC(=O)NC(C)=N`: the melting point lay in the range of 111 to 114 °C.

Compound `COC(=O)c1ccccc1C=Nc1ccc(Oc2ccc(C(F)(F)F)cc2Cl)cc1O` had a melting point of 82 to 85 °C.

Turning to `O=C(CCCN1CCCCC1)c1ccc2oc3ccc(C(=O)CCCN4CCCCC4)cc3c2c1`, the melting point fell in the range of 70 to 71 °C.

For the compound `CCCCCC(O)C1C(=O)NC(C(=O)SCc2ccccc2)(C(O)C2C=CCCC2)C1(C)O` (centres undefined), the melting point was 123 °C.

As to `N#Cc1c(N2CCN(C(=O)c3ccco3)CC2)c2cc(F)cnc2n(Cc2ccccc2)c1=O`, the melting point came to 216 °C.

With `O=Cc1ccc(OC2CCN(c3ccccn3)CC2)cc1`, the melting point is 114 to 116 °C.

For the compound `CCCCCCC(O)Cn1ccnc1` (centres undefined), the melting point lay within 44 to 45.5 °C.

With `Cc1c(C(=O)N[C@H](C)[C@](O)(Cn2cncn2)c2ccc(F)cc2F)cnn1-c1ccc(Br)cc1`, the melting point lay within 153 to 154 °C.

Compound `COc1ccc2c(n1)c(CC[N+](=O)[O-])c1n2CCCC1` displayed a melting point of 96 to 97 °C.

Take `COCOCc1cc(-c2ccc(C(=O)O)cc2)cc(-c2ccc3c(c2)C(C)(C)CCC3(C)C)c1`: the melting point came out at 88 °C.

`CC(C)(C)OC(=O)c1ccc(C=Cc2cnc(N)c(C#N)c2)cc1`: the melting point was 190 to 195 °C.

Take `Cn1c(C(=O)O)c(-c2ccc(F)cc2)c2ccsc2c1=O`: the melting point turned out to be 205 °C.

For `N#Cc1ccc(C(=O)CNc2ccc(I)cc2)cc1`, the melting point was in the range of 160 to 165 °C.

On to `CC(C)c1nn(-c2ccccc2)c(-c2ccc(F)cc2)c1C=O`, for which the melting point fell in the range of 110 to 112 °C.

For `CC(C)(C)OC(=O)N1CCC2(CC1)Cn1cc([N+](=O)[O-])nc1O2`, the melting point fell in the range of 230 to 232 °C.

`CC(CN(O)C(N)=O)OCc1cc2ccccc2s1` (centres undefined) displayed a melting point of 132 to 133 °C.

`CS(=O)c1ccc(-c2nn(Cc3ccc(Cl)cc3Cl)c(=O)cc2-c2ccc(F)cc2)cc1` (centres undefined) yielded a melting point of 214 °C.

`N#Cc1ccc(-c2cn(-c3ccc(C#N)cc3)c(CC3(O)C=CC=CN3)n2)cc1` (centres undefined) had a melting point of 167 to 175 °C.

`O=C(/C=C/c1ccc2ccccc2c1)N1CCN(Cc2cccc(CN3CCN(C(=O)/C=C/c4ccc5ccccc5c4)CC3)n2)CC1` showed a melting point of 200 to 202 °C.

`CCCc1ccc2nc(C(F)(F)F)c(S(N)(=O)=O)n2n1` showed a melting point of 151 to 152 °C.

In the case of `Cc1c(-c2ccccc2)oc2c(NC(=O)C(F)(F)F)cccc2c1=O`, the melting point is 175 to 176 °C.

For `CC(=O)OCC(ON1C(C)(C)CC(O)CC1(C)C)c1ccccc1` (centres undefined), the melting point lay in the range of 68 to 69 °C.

Compound `O=CNC=Cc1cc(O)ccc1O` yielded a melting point of 149 to 153 °C.

In turn, `O=C(O)C(CNC(=O)C1Cc2ccccc2N1S(=O)(=O)c1ccc(-c2cccc(C(F)(F)F)c2)cc1)Cc1ccccc1` (centres undefined) came in with a melting point of 85 to 90 °C.

In the case of `CN1C(=O)N(c2c(Cl)cccc2Cl)Cc2cnc(Nc3ccc(F)cc3)nc21`, the melting point lay within 208 to 211 °C.

Compound `CCCc1c(O)ccc2c(=O)cc(C(=O)OC)oc12` gave a melting point of 222 to 224 °C.
